System: local fat
Assay: Clinical trials on hyaluronidase unit dose (efficacy threshold, diffusion range)
Format: in vivo
Conditions: per injection
Experimental: It was ascertained from clinical trials that at the hyaluronidase unit dose of 300 IU to 600 IU, it was possible to ensure adequate fat removing effect while minimizing side effects. It was also shown in clinical trials that at the above dose range, if the injectable composition is administered in a volume of 1 cc containing 300 IU of hyaluronidase, the diameter of the diffusion range is about 1 cm. Thus, with the hyaluronidase dose set at 300 IU to 600 IU, by injecting the composition at a volume of 0.5 to 2 cc depending on the hyaluronidase dose and with an interval of 0.5 to 1.5 cm between injection points, injection at narrow intervals is possible, and consequently, lipolysis occurs evenly. Furthermore, a lifting effect occurs concomitantly where skin resilience is improved by the promotion of collagen production through the stimulation of skin by the injection needle. […] Thus, by administering an injectable composition of the present disclosure having the above compositional ranges, the side effects from drug use are minimized while fat removal over a wide area can be carried out using minimal volumes. It was shown in clinical trials that at a hyaluronidase dose of 300 IU, the diameter of the diffusion range for the injectable composition is about 1 cm. […]

hyaluronidase
minimum amount of hyaluronidase exhibiting efficacy: 300 IU
